Assay results reported in patent US12144864B2, “Tubulysins and protein-tubulysin conjugates” (Regeneron Pharmaceuticals, Inc., priority 2018, dated 2024).
Read-outs that look alike come from different tables or passages of the source.

Key:
C4-2 cells = assay: Cell-based killing assay of payloads (CellTiter-Glo), C4-2 cells; parameters: species or system human; conditions: 5-day incubation; for IC50: Homo sapiens, C4-2, 120 h, average ± SD where replicates; for C4-2 % Kill: at maximum concentration tested (100 − % viable cells)
How it was run: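 Viability readout is CellTiter-Glo luminescence after a 5-day exposure to 10-point, threefold-diluted payloads spanning 100 nM–[…], following overnight attachment of 4000 cells/well. Four-parameter logistic fit gives IC50 in M; % kill taken at highest concentration tested.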

T47D cells = assay: Cell-based killing assay of payloads (CellTiter-Glo), T47D cells; parameters: species or system human; conditions: 5-day incubation; for IC50: Homo sapiens, T47D, 120 h; for T47D % Kill: at maximum concentration tested
Description: (§1) To test the ability of the disclosed tubulysin payloads to kill human cell lines, an in vitro cytotoxicity assay was performed. In vitro cytotoxicity of the disclosed payloads, as well as reference compounds, were evaluated using the CellTiter-Glo Assay Kit (Promega, Cat #G7573), in which the quantity of ATP present is used to determine the number of viable cells in culture. For the assay, C4-2, HEK293, or T47D cells were seeded at 4000 cells/well on Nunclon white 96-well plates in complete growth medium (DME high glucose:Ham's F12 at 4:1, 10% FBS, 100 units/ml Penicillin, 100 ug/ml streptomycin, 53 ug/ml glutatmine, 10 ug/ml insulin, 220 ng/ml biotin, 12.5 pg/ml T3, 12.5 ug/ml Adenine, 4 ug/ml transferrin for C42 cells; DME high glucose, 10% FBS, 100 units/ml Penicillin, 100 ug/ml streptomycin, 53 ug/ml glutatmine for HEK293; RPMI, 10% FBS, 100 units/ml Penicillin, 100 ug/ml streptomycin, 53 ug/ml glutatmine, 10 ug/ml insulin, 10 mM HEPEs, 200 nM Sodium Pyruvate for T47D cells) and grown overnight at 37° C. in 5% CO2. For cell viability curves, 1:3 serially diluted payloads were added to the cells at final concentrations ranging from 100 nM to […], including a no treatment control group, and were then incubated for 5 days. After the 5-day incubation, cells were incubated at room temperature with 100 μL of CellTiter-Glo reagents for 10 minutes. Relative luminescence units (RLU) were determined on a Victor plate reader (PerkinElmer). The IC50 values were determined from a four-parameter logistic equation over a 10-point response curve (GraphPad Prism). All IC50 values are expressed in molar (M) concentration. The percent cell killing (% kill) at the maximum concentration tested was estimated from the following formula (100−% viable cells). Averages±standard deviation (SD) are included where replicate experiments were performed.

HEK293 cells = assay: Cell-based killing assay of payloads (CellTiter-Glo), HEK293 cells; parameters: species or system human; conditions: 5-day incubation; for IC50: Homo sapiens, HEK293, 120 h; for HEK293 % Kill: at maximum concentration tested
Description: as §1

HCT15 cells = assay: cells; assay type: cell-based, human; conditions: HCT15 cells; for HCT-15 + verapamil % Kill / HCT-15 % Kill: maximum % cell killing
How it was run: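 Five-day exposure of 1000 HCT15 cells/well to threefold payload dilutions, run both plus and minus verapamil (5 ug/mL) in RPMI with 10% FBS. ATP luminescence (CellTiter-Glo) gives viability; four-parameter logistic fit of 10 points yields IC50, and 100 − % viable at highest dose gives % kill.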

HL60/MX2 cells = assay: Cytotoxicity in panel of MDR cell lines, HL60/MX2 (72 h and 144 h); assay type: cell-based, human; conditions: for IC50: Homo sapiens
How it was run: (§2)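 Viability was measured as ATP luminescence (CellTiter-Glo) after 72 h and 144 h payload exposure, using 1:3 dilution series. Each line had 1000 cells/well: H69AR in RPMI with 20% FBS, HCT-15 and HL60/MX2 in RPMI with 10% FBS, and MES-SA/MX2 in 1:1 Waymouth's:McCoy's with 10% FBS. Values are four-parameter logistic IC50 and % kill (100 − % viable) at the highest dose.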

MES-SA/MX2 cells = assay: Cytotoxicity in panel of MDR cell lines, MES-SA/MX2 (72 h and 144 h); assay type: cell-based, human; conditions: for IC50: Homo sapiens
How it was run: as §2

HCT-15 cells = assay: Cytotoxicity in panel of MDR cell lines, HCT-15 (72 h and 144 h); assay type: cell-based, human; conditions: for IC50: Homo sapiens
How it was run: as §2

H69AR cells = assay: Cytotoxicity in panel of MDR cell lines, H69AR (72 h and 144 h); assay type: cell-based, human; conditions: for IC50: Homo sapiens
How it was run: as §2

[1] = with 5 ug/mL Verapamil, read-out: HCT-15 + verapamil IC50
[2] = Homo sapiens, HCT-15, without Verapamil, read-out: HCT-15 IC50
[3] = 72 h incubation, read-out: HL60/MX2 IC50 72 h
[4] = 144 h incubation, read-out: HL60/MX2 IC50 144 h
[5] = 72 h incubation, read-out: MES-SA/MX2 IC50 72 h
[6] = 144 h incubation, read-out: MES-SA/MX2 IC50 144 h
[7] = 72 h incubation, read-out: HCT-15 IC50 72 h
[8] = 144 h incubation, read-out: HCT-15 IC50 144 h
[9] = 72 h incubation, read-out: H69AR IC50 72 h
[10] = 144 h incubation, read-out: H69AR IC50 144 h

SMILES | IC50 (C4-2 cells) [nM] | C4-2 % Kill (C4-2 cells) [%] | IC50 (T47D cells) [nM] | T47D % Kill (T47D cells) [%] | IC50 (HEK293 cells) [nM] | HEK293 % Kill (HEK293 cells) [%] | HCT-15 + verapamil % Kill (HCT15 cells; with 5 ug/mL Verapamil) [%] | IC50 (HCT15 cells; [1]) [nM] | HCT-15 % Kill (HCT15 cells; without Verapamil) [%] | IC50 (HCT15 cells; [2]) [nM] | HL60/MX2 % Kill 72 h (HL60/MX2 cells; 72 h incubation) [%] | HL60/MX2 % Kill 144 h (HL60/MX2 cells; 144 h incubation) [%] | IC50 (HL60/MX2 cells; [3]) [nM] | IC50 (HL60/MX2 cells; [4]) [nM] | MES-SA/MX2 % Kill 72 h (MES-SA/MX2 cells; 72 h incubation) [%] | MES-SA/MX2 % Kill 144 h (MES-SA/MX2 cells; 144 h incubation) [%] | IC50 (MES-SA/MX2 cells; [5]) [nM] | IC50 (MES-SA/MX2 cells; [6]) [nM] | HCT-15 % Kill 72 h (HCT-15 cells; 72 h incubation) [%] | HCT-15 % Kill 144 h (HCT-15 cells; 144 h incubation) [%] | also measured
C#CCCCON(C(=O)[C@@H](NC(=O)[C@H]1CCCCN1C)[C@@H](C)CC)[C@H](C[C@@H](OC(C)=O)c1nc(C(=O)N[C@@H](Cc2ccc(N)cc2)C[C@H](C)C(=O)O)cs1)C(C)C [Vh, (2S,4R)-4-({2-[(1R,3R)-1-(Acetyloxy)-4-methyl-3-[(2S,3S)-3-methyl-2-{[(2R)-1-methylpiperidin-2-yl]formamido}-N-(pent-4-yn-1-yloxy)pentanamido]pentyl]-1,3-thiazol-4-yl}formamido)-5-(4-aminophenyl)-2-methylpentanoic acid] | 0.509 | 92 | 0.458 | 64.5 | 0.718 | 85.6 | 98.1 | 0.587 | 97.7 | 1.47 | 97.5 | 99.9 | 0.173 | < 0.015 | 98.4 | 99.8 | 2.98 | 8.15 | 97 | 99.6 | IC50 (HCT-15 cells; [7]): 0.871 nM; IC50 (HCT-15 cells; [8]): 1.27 nM; H69AR % Kill 72 h (H69AR cells; 72 h incubation): 93.7%; H69AR % Kill 144 h (H69AR cells; 144 h incubation): 98.4%; IC50 (H69AR cells; [9]): 2.59 nM; IC50 (H69AR cells; [10]): 4.21 nM
CC[C@H](C)[C@H](NC(=O)[C@H]1CCCCN1C)C(=O)N(CCCCc1cn(C)nn1)[C@H](C[C@@H](OC(C)=O)c1nc(C(=O)N[C@@H](Cc2ccc(N)cc2)CC(C)(C)C(=O)O)cs1)C(C)C [IVh, (S)-4-(2-((1R,3R)-1-acetoxy-4-methyl-3-((2S,3S)-3-methyl-N-(4-(1-methyl-1H-1,2,3-triazol-4-yl)butyl)-2-((R)-1-methylpiperidine-2-carboxamido)pentanamido)pentyl)thiazole-4-carboxamido)-5-(4-aminophenyl)-2,2-dimethylpentanoic acid] | 0.647 | 82 ± 2.8 | 1.86 | 71.6 | 1.76 | 82.5 |  |  | 94.6 ± 3.5 | 2.5 | 96.4 | 100 | 1.11 | < 0.015 | 98.5 | 99.9 | 7.49 | 8.8 | 95.4 | 99.7 | IC50 (HCT-15 cells; [7]): 1.52 nM; IC50 (HCT-15 cells; [8]): 1.53 nM; H69AR % Kill 72 h (H69AR cells; 72 h incubation): 90.2%; H69AR % Kill 144 h (H69AR cells; 144 h incubation): 97.5%; IC50 (H69AR cells; [9]): 2.93 nM; IC50 (H69AR cells; [10]): 3.3 nM
CCCCCON(C(=O)[C@@H](NC(=O)[C@H]1CCCCN1C)[C@@H](C)CC)[C@H](C[C@@H](OC(C)=O)c1nc(C(=O)N[C@@H](Cc2ccc(N)cc2)CC(C)(C)C(=O)O)cs1)C(C)C [Vb, (4S)-4-({2-[(1R,3R)-1-(Acetyloxy)-4-methyl-3-[(2S,3S)-3-methyl-2-{[(2R)-1-methylpiperidin-2-yl]formamido}-N-(pentyloxy)pentanamido]pentyl]-1,3-thiazol-4-yl}formamido)-5-(4-aminophenyl)-2,2-dimethylpentanoic acid] | 0.07 | 92.3 ± 1.7 | 0.144 | 66.5 | 0.289 | 87.8 | 98.2 ± 0.5 | 0.0365 | 98.8 ± 0.7 | 0.12 | 97.9 | 100 | < 0.015 | < 0.015 | 99.6 | 99.9 | 0.213 | 1.04 | 97.8 | 99.7 | IC50 (HCT-15 cells; [7]): 0.0623 nM; IC50 (HCT-15 cells; [8]): 0.127 nM; H69AR % Kill 72 h (H69AR cells; 72 h incubation): 97%; H69AR % Kill 144 h (H69AR cells; 144 h incubation): 99.4%; IC50 (H69AR cells; [9]): 0.272 nM; IC50 (H69AR cells; [10]): 0.66 nM
C#CCCCON(C(=O)[C@@H](NC(=O)[C@H]1CCCCN1C)[C@@H](C)CC)[C@H](C[C@@H](OC(=O)NCC)c1nc(C(=O)N[C@@H](Cc2ccc(N)cc2)CC(C)(C)C(=O)O)cs1)C(C)C [VIf, (4S)-5-(4-Aminophenyl)-4-({2-[(1R,3R)-1-[(ethylcarbamoyl)oxy]-4-methyl-3-[(2S,3S)-3-methyl-2-{[(2R)-1-methylpiperidin-2-yl]formamido}-N-(pent-4-yn-1-yloxy)pentanamido]pentyl]-1,3-thiazol-4-yl}formamido)-2,2-dimethylpentanoic acid] | 0.312 | 93.9 | 0.302 | 63.2 | 0.383 | 85.6 | 98.8 | 0.0854 | 99.1 | 2.06 |  |  |  |  |  |  |  |  |  |  | 
